{
  "source": "patent US20060166872A1",
  "about": "“Fp receptor antagonists or pgf2 alpha antagonists for treating menorrhagia” (priority 2002, published 2006)",
  "key": {"[1]": {"target": "T1, prostaglandin receptor DP (Homo sapiens, UniProt Q13258)", "T1 sequence (Q13258 1-359)": "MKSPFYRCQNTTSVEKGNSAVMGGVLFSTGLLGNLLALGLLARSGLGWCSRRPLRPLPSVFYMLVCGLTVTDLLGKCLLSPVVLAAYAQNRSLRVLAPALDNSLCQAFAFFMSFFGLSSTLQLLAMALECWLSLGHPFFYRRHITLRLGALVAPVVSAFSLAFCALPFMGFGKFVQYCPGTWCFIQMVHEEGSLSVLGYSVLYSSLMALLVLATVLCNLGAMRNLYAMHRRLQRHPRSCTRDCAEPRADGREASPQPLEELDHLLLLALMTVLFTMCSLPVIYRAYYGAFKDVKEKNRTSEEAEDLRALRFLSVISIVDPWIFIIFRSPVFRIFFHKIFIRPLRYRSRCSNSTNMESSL", "conditions": "10 μM; cited from earlier work"}, "FP receptor": {"system": "FP receptor", "conditions": "cited from earlier work"}, "[2]": {"target": "prostaglandin receptor EP2 (Homo sapiens, UniProt P43116)", "sequence (P43116 whole entry)": "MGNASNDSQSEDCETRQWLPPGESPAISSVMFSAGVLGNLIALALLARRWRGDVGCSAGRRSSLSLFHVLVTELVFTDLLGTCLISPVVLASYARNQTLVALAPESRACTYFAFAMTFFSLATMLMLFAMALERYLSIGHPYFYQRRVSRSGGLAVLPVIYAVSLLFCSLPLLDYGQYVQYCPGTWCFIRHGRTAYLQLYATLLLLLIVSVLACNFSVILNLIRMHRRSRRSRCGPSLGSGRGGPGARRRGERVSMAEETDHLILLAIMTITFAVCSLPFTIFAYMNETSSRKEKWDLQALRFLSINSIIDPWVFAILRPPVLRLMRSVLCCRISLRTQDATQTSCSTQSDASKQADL", "conditions": "10 μM; cited from earlier work"}, "[3]": {"target": "prostaglandin receptor EP4 (Homo sapiens, UniProt P35408)", "sequence (P35408 whole entry)": "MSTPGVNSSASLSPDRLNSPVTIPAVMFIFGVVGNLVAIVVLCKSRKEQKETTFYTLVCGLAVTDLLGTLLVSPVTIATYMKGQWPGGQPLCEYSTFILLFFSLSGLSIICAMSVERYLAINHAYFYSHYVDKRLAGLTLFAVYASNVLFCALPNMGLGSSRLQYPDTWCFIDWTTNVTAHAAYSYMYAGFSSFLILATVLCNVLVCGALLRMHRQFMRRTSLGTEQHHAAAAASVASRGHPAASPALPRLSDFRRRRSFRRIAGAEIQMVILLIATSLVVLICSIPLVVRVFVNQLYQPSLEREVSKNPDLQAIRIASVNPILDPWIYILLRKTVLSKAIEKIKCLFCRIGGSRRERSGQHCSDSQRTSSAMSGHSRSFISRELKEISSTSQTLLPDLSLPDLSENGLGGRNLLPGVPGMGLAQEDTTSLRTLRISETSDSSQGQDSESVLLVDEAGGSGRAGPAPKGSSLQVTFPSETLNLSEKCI", "conditions": "10 μM; cited from earlier work"}, "[4]": {"system": "prostaglandin receptor TP", "conditions": "10 μM; cited from earlier work"}, "Ishikawa cells [5]": {"system": "Ishikawa cells", "assay": "PGF2α-induced ERK phosphorylation in Ishikawa cells", "format": "cell-based, human", "conditions": "100 nM, 10 min", "experimental": "PGF2α-induced ERK phosphorylation in Ishikawa cells. PGF2α 100 nM was incubated for 10 and 30 min. U73122 2 μM was pre-incubated for 60 min before treatment with PGF2α."}, "Ishikawa cells [6]": {"system": "Ishikawa cells", "assay": "Proliferation assay, BrdU incorporation ELISA", "format": "cell-based, human", "conditions": "for basal proliferation (BrdU incorporation): no PGF2α", "experimental": "Proliferation of Ishikawa cells was determined using a BrdU incorporation ELISA (Roche Diagnostics GmbH, Mannheim, Germany). Briefly, Ishikawa cells were seeded at 5×10^3 cells per well in a 96-well plate and allowed to adhere overnight. Cells were next starved for 24 hr with indomethacin 1.5 μg/ml before 24 h PGF2α treatment (1 nM-1 μM) in serum-free medium containing indomethacin. Inhibitors were added to cells for 60 min before PGF2α with the control well receiving the same concentration of vehicle. Following 24 h treatment, cells were labelled with BrdU for 4 h, then fixed and assayed for BrdU incorporation using standard immunohistochemical techniques. Results were plotted as percentages of untreated cells."}, "HT-29": {"system": "HT-29", "conditions": "HT-29 human colon adenocarcinoma cell line; cited from earlier work"}, "Ishikawa cells [7]": {"system": "Ishikawa cells", "assay": "Total inositol phosphate (InsP) assay in Ishikawa cells", "format": "cell-based, human", "conditions": "PGF2α 100 nM", "experimental": "(§1) PGF2α stimulation of total InsP production was as described (21). Briefly, tissue samples or Ishikawa cells were incubated with inositol free DMEM containing 1% dialyzed heat-inactivated FCS and 0.5 μCi/well myo-[^3H]inositol (Amersham Pharmacia Biotech) for 48 hours. Medium was removed, and cells washed with 1 ml buffer (140 mM NaCl, 20 mM HEPES, 4 mM KCl, 8 mM glucose, 1 mM MgCl2, 1 mM CaCl2, 1 mg/ml bovine serum albumin) containing 10 mM LiCl. Cells were then incubated for 1 hour at 37° C. in 1 ml buffer with or without inhibitors. Following incubation agonist was added at the required concentration and cells incubated for 1 hour. Reactions were terminated by the removal of agonist and the addition of 500 μl ice cold 10 mM formic acid, which was incubated for 30 minutes at 4° C. Total [^3H] inositol phosphates was separated from the formic acid cell extracts on AG 1-X8 anion exchange resin (Bio-Rad) and eluted with a 1 M ammonium formate/0.1 M formic acid solution. The associated radioactivity was determined by liquid scintillation counting and plotted relative to protein concentrations determined using the modified Lowry method."}, "HCT-8": {"system": "HCT-8", "conditions": "HCT-8 human colon adenocarcinoma cell line; cited from earlier work"}, "human endometrium": {"system": "human endometrium", "assay": "Total inositol phosphate (InsP) assay in human endometrium", "format": "cell-based", "experimental": "as §1"}, "PGES": {"target": "T2, PGES (Homo sapiens, UniProt O14684)", "T2 sequence (O14684 1-152)": "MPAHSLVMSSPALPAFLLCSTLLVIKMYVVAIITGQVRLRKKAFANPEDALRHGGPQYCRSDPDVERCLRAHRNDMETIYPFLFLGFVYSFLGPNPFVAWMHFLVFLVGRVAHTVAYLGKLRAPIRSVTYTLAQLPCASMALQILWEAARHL", "conditions": "read-out: IC50 for inhibition of PGES activity; cited from earlier work"}},
  "note": "Entries after “also recorded” stand apart in the source; their conditions may differ.",
  "data": [
    {"compound": "O=C(O)CCC/C=C\\C[C@@H]1[C@@H](/C=C/[C@H](O)C2Cc3ccccc3C2)[C@@H](F)C[C@@H]1O", "note": "[AL-8810, (5Z, 13E)-(9S,11S,15R)-9,15-dihydroxy-11-fluoro-15-(2-indanyl)-16, 17, 18, 19, 20-pentanor-5,13-prostadienoic acid]", "values": [
      {"measurement": "inhibition of functional responses of DP receptor", "setting": "[1]", "value": "not to significantly inhibit"},
      {"measurement": "FP (PGF2α) receptor agonist activity, in words", "setting": "FP receptor", "value": "weak partial agonist"},
      {"measurement": "FP (PGF2α) receptor antagonist activity, in words", "setting": "FP receptor", "value": "highly selective antagonist; also recorded: micromolar potency"},
      {"measurement": "inhibition of functional responses of EP2 receptor", "setting": "[2]", "value": "not to significantly inhibit"},
      {"measurement": "inhibition of functional responses of EP4 receptor", "setting": "[3]", "value": "not to significantly inhibit"},
      {"measurement": "inhibition of functional responses of TP receptor", "setting": "[4]", "value": "not to significantly inhibit"}
    ]},
    {"compound": "prostaglandin F2α [PGF2α]", "values": [
      {"measurement": "increase in phosphorylated ERK intensity compared to native ERK", "setting": "Ishikawa cells [5]", "value": "6.6±0.7", "unit": "fold"},
      {"measurement": "BrdU incorporation (percentage of untreated cells)", "setting": "Ishikawa cells [6]; PGF2α 100 nM (maximal), 24 h, Ishikawa cells", "value": "136.3±7.48", "unit": "%"},
      {"measurement": "proliferation", "setting": "HT-29", "value": "lack of proliferation"},
      {"measurement": "maximum total InsP", "setting": "Ishikawa cells [7]", "value": 29, "unit": "cpm/mg protein"},
      {"measurement": "proliferation", "setting": "HCT-8", "value": "lack of proliferation"},
      {"measurement": "concentration giving maximal InsP mobilisation", "setting": "human endometrium", "value": 100, "unit": "nM"},
      {"measurement": "total InsP production following treatment", "setting": "human endometrium", "value": "concentration-dependent increase"}
    ]},
    {"compound": "Cc1ccc(S(=O)(=O)NC(=O)NN2CCCCCC2)cc1", "note": "[tolazamide]", "values": [
      {"measurement": "FP (PGF2α) receptor antagonist activity, in words", "setting": "FP receptor", "value": "very weak antagonists"}
    ]},
    {"compound": "COc1ccc2c(c1)CC[C@@H]1[C@@H]2CC[C@]2(C)[C@@H](NCCCCCCN3C(=O)C=CC3=O)CC[C@@H]12", "note": "[U73122]", "values": [
      {"measurement": "basal proliferation (BrdU incorporation)", "setting": "Ishikawa cells [6]; U73122 2 μM pre-incubation", "value": "93.9±1.9", "unit": "%"},
      {"measurement": "effect on PGF2α-induced InsP mobilisation", "setting": "human endometrium; pre-treatment with U73122 2 μM, PGF2α 100 nM", "value": "inhibited"}
    ]},
    {"compound": "CCCCC(F)[C@H](O)/C=C/[C@H]1CC[C@H](O)[C@@H]1C/C=C\\CCCC(=O)O", "note": "(stereo partly drawn) [AL-3138, 11-deoxy-16-fluoro PGF2α]", "values": [
      {"measurement": "FP (PGF2α) receptor agonist activity, in words", "setting": "FP receptor", "value": "weak partial agonist; also recorded: partial agonist of low efficacy"},
      {"measurement": "FP (PGF2α) receptor antagonist activity, in words", "setting": "FP receptor", "value": "highly selective antagonist"}
    ]},
    {"compound": "COc1cccc(-c2cc(=O)c3ccccc3o2)c1N", "note": "[PD98059]", "values": [
      {"measurement": "basal proliferation (BrdU incorporation)", "setting": "Ishikawa cells [6]; PD98059 50 μM pre-treatment", "value": "84.0±5.8", "unit": "%"}
    ]},
    {"compound": "CCCCNC(=O)NS(=O)(=O)c1ccc(C)cc1", "note": "[tolbutamide]", "values": [
      {"measurement": "FP (PGF2α) receptor antagonist activity, in words", "setting": "FP receptor", "value": "very weak antagonists"}
    ]},
    {"compound": "CCCCC/C=C\\C\\C=C/C=C/C=C/[C@@H](SC[C@H](NC(=O)CC[C@H](N)C(=O)O)C(=O)NCC(=O)O)[C@@H](O)CCCC(=O)O", "note": "[leukotriene C4]", "values": [
      {"measurement": "IC50", "setting": "PGES", "value": 5, "unit": "µM"}
    ]},
    {"compound": "CSc1ccc(/C=C2/C(C)=C(CC(=O)O)c3cc(F)ccc32)cc1", "note": "[sulindac sulphide]", "values": [
      {"measurement": "IC50", "setting": "PGES", "value": 80, "unit": "µM"}
    ]}
  ]
}
